As a reminder, the chromatographic logP is a lipophilicity value derived from retention on a column. A low value points to a more hydrophilic compound.

Data set [1] concerns Puccinia recondita. Nature of the data set: Example G2: in vivo preventive test on Puccinia recondita (brown rust on wheat), comparison. Particulars: evaluated 11 days after inoculation. On the procedure: Young plants of wheat were treated by spraying the active ingredient prepared as described above. Control plants were treated only with an aqueous solution of acetone/dimethyl sulfoxide/Tween®. After 24 hours, the plants were contaminated by spraying the leaves with an aqueous suspension of Puccinia recondita spores.

The test system of data set [2] is Septoria tritici. Nature of the data set: Example G6: in vivo curative Septoria tritici test (wheat). Particulars: sprayed 48 hours after the incubation, rate of application 500 ppm, evaluated 21 days after inoculation.
For data set [3], the system named is Colletotrichum lindemuthianum. The data set is described as follows: Example G3: in vitro test for the calculation of the ED50-value with microorganisms, Colletotrichum lindemuthianum. The data set is classed as cell-based. The conditions noted are these: liquid culture, spore suspension, 4 to 7 days incubation, spectrometric measurement of mycelium growth.
The test system of data set [4] is Septoria tritici. Nature of the data set: Example G7: in vivo 5 days preventive Septoria tritici test (wheat). The conditions noted are these: inoculated 5 days after spraying, rate of application 500 ppm, evaluated 21 days after inoculation. On the procedure:
(§1) Solvent: 49 parts by weight of N,N-dimethylacetamide Emulsifier: 1 part by weight of alkylaryl polyglycol ether To produce a suitable preparation of active compound, 1 part by weight of active compound is mixed with the stated amounts of solvent and emulsifier, and the concentrate is diluted with water to the desired concentration. To test for preventive and long-lasting activity, young plants are sprayed with a preparation of active compound or active compound combination at the stated rate of application.

The subject of data set [5] is Sphaerotheca fuliginea. Nature of the data set: Example G4: in vivo preventive Sphaerotheca test (cucumbers). The conditions noted are these: evaluated 7 days after inoculation. On the procedure:
Solvent: 24.5 parts by weight of acetone • 24.5 parts by weight of dimethylacetamide Emulsifier: 1 part by weight of alkylaryl polyglycol ether To produce a suitable preparation of active compound, 1 part by weight of active compound is mixed with the stated amounts of solvent and emulsifier, and the concentrate is diluted with water to the desired concentration. To test for preventive activity, young plants are sprayed with the preparation of active compound at the stated rate of application. After the spray coating has dried on, the plants are inoculated with an aqueous spore suspension of Sphaerotheca fuliginea.

Data set [6] relates to Fusarium culmorum. Nature of the data set: Example G3: in vitro test for the calculation of the ED50-value with microorganisms, Fusarium culmorum. The data set is classed as cell-based. Particulars: liquid culture, spore suspension, 4 to 7 days incubation, spectrometric measurement of mycelium growth. On the procedure: • Solvent: DMSO • Culture medium: 14.6 g anhydrous D-glucose (VWR), 7.1 g mycological peptone (Oxoid), 1.4 g granulated yeast extract (Merck), supplemented with water to a total volume of 1 liter • Inoculum: spore suspension
Fungicides were solubilized in DMSO and the solution used to prepare the required range of concentrations. The final concentration of DMSO used in the assay was <1% by weight.
A spore suspension was prepared and diluted to the desired spore density.
Fungicides were evaluated for their ability to inhibit spore germination and mycelium growth in liquid culture assay. The compounds were added in the desired concentration to the culture medium with spores. After 4 to 7 days incubation, fungi-toxicity of compounds was determined by spectrometric measurement of mycelium growth. Inhibition of fungal growth was determined by comparing the absorbance values in wells containing the fungicides with the absorbance in control wells without fungicides.

Data set [7] deals with Pyricularia oryzae. The class given is cell-based. Particulars: liquid culture, spore suspension, 4 to 7 days incubation, spectrometric measurement of mycelium growth.
Data set [8] concerns Botrytis cinerea. The data set is described as follows: Example G1: in vivo preventive test on Botrytis cinerea (grey mould), comparison. Particulars: rate of application 500 ppm; gherkin; evaluated 4 to 5 days after inoculation. On the procedure: Young plants of gherkin were treated by spraying the active ingredient prepared as described above. Control plants were treated only with an aqueous solution of acetone/dimethyl sulfoxide/Tween®. After 24 hours, the plants were contaminated by spraying the leaves with an aqueous suspension of Botrytis cinerea spores.

Data set [9] concerns Septoria tritici. The data set is described as follows: Example G5: in vivo preventive Septoria tritici test (wheat). Particulars: rate of application 500 ppm, evaluated 21 days after inoculation. On the procedure:
as §1, with “preventive” for “preventive and long-lasting”, “with the” for “with a”, “application. After the spray coating has been dried, the plants are sprayed with a spore suspension of Septoria tritici.” for “application.”

Data set [10] can be described thus: Log P by HPLC on reversed phase columns (EEC directive 79/831 Annex V.A8). The data set is classed as physicochemical. Particulars: method [a]: LC-UV, acidic range, 0.1% formic acid in water and acetonitrile. On the procedure: If more than one Log P value is available within the same method, all the values are given and separated by “+”. Calibration was done with straight-chain alkan2-ones (with 3 to 16 carbon atoms) with known Log P values (measurement of Log P values using retention times with linear interpolation between successive alkanones). Lambda-max-values were determined using UV-spectra from 200 nm to 400 nm and the peak values of the chromatographic signals.

For the compound `CSc1ccc(Oc2ccc(C(C)(O)Cn3cncn3)c(C(F)(F)F)c2)cc1` (stereo not shown) [Comparative compound, reference compound], the Efficacy in % in data set [1] (rate of application 100 ppm) was 25%; in data set [1] (rate of application 500 ppm), 88%; in data set [2], 57%; in [4], 29%; in data set [5] (rate of application 10 ppm), 28%; in data set [5] (rate of application 100 ppm), 100%. The values for the Efficacy in % in [8] and in [9] were 69% and 22%, respectively. Moreover, in data set [3], the “Colletotrichum lindemuthianum ED50 value in ppm” value is 0.83 ppm. In data set [6], the “Fusarium culmorum ED50 value in ppm” value is recorded as 2.6 ppm. The “Pyricularia oryzae ED50 value in ppm” value in [7] stood at 5.6 ppm.
In turn, `O=Cc1ccc(Oc2ccc(C(O)Cn3cncn3)c(C(F)(F)F)n2)cc1` (stereo not shown) [Compound I-01, 4-[[5-[1-hydroxy-2-(1,2,4-triazol-1-yl)ethyl]-6-(trifluoromethyl)-2-pyridyl]oxy]benzaldehyde] came in with a chromatographic logP in [10] (compounds of formula (I)) of 1.91.
Compound `CSc1ccc(Oc2ccc(C(O)Cn3cncn3)c(C(F)(F)F)n2)cc1` (stereo not shown) [Compound I-02, 1-[6-(4-methylsulfanylphenoxy)-2-(trifluoromethyl)-3-pyridyl]-2-(1,2,4-triazol-1-yl)ethanol] had a chromatographic logP in data set [10] (compounds of formula (I)) of 2.59.
As for `CSc1ccc(Oc2ccc(C(C)(O)Cn3cncn3)c(C(F)(F)F)n2)cc1` (stereo not shown) [Compound I-03, 2-[6-(4-methylsulfanylphenoxy)-2-(trifluoromethyl)-3-pyridyl]-1-(1,2,4-triazol-1-yl)propan-2-ol], the Efficacy in % amounted to 65% in [1] (rate of application 100 ppm); 88% in [1] (rate of application 500 ppm); 93% in data set [2]; 71% in data set [4]; 78% in data set [5] (rate of application 10 ppm); 100% in [5] (rate of application 100 ppm). Besides, the Efficacy in % amounted to 90% in data set [8] and 78% in [9]. In [3], the “Colletotrichum lindemuthianum ED50 value in ppm” value was 0.38 ppm. Moreover, the “Fusarium culmorum ED50 value in ppm” value in data set [6] was 0.83 ppm. In addition, in data set [10] (compounds of formula (I)), the chromatographic logP amounted to 2.74. Moreover, the “Pyricularia oryzae ED50 value in ppm” value in data set [7] is given as 1.7 ppm.
Consider `ON=Cc1ccc(Oc2ccc(C(O)Cn3cncn3)c(C(F)(F)F)n2)cc1` (stereo not shown) [Compound I-04, 4-[[5-[1-hydroxy-2-(1,2,4-triazol-1-yl)ethyl]-6-(trifluoromethyl)-2-pyridyl]oxy]benzaldehyde Oxime], for which the chromatographic logP in [10] (compounds of formula (I)) turned out to be 2.26.
In [10] (compounds of formula (V)), `CC(=O)c1ccc(Oc2ccc(C3OCCO3)cc2)nc1C(F)(F)F` [Compound V-01, 1-[6-[4-(1,3-dioxolan-2-yl)phenoxy]-2-(trifluoromethyl)-3-pyridyl]ethanone] returned a chromatographic logP of 2.98.
Consider `CSc1ccc(Oc2ccc(C(C)=O)c(C(F)(F)F)n2)cc1` [Compound V-02, 1-[6-(4-methylsulfanylphenoxy)-2-(trifluoromethyl)-3-pyridyl]ethanone], for which, in data set [10] (compounds of formula (V)), the chromatographic logP amounted to 3.7.
As for `O=Cc1ccc(Oc2ccc(C(=O)Cn3cncn3)c(C(F)(F)F)n2)cc1` [VII-01, 4-[[5-[2-(1,2,4-triazol-1-yl)acetyl]-6-(trifluoromethyl)-2-pyridyl]oxy]benzaldehyde], in data set [10] (compounds of formula (VII)), the chromatographic logP is 2.12.
In [10] (compounds of formula (VII)), `CSc1ccc(Oc2ccc(C(=O)Cn3cncn3)c(C(F)(F)F)n2)cc1` [VII-02, 1-[6-(4-methylsulfanylphenoxy)-2-(trifluoromethyl)-3-pyridyl]-2-(1,2,4-triazol-1-yl)ethanone] yielded a chromatographic logP of 2.92.
As for `C#Cc1ccc(Oc2ccc(C(=O)Cn3cncn3)c(C(F)(F)F)n2)cc1` [VII-04, 1-[6-(4-ethynylphenoxy)-2-(trifluoromethyl)-3-pyridyl]-2-(1,2,4-triazol-1-yl)ethanone], in [10] (compounds of formula (VII)), the chromatographic logP was determined as 2.63.
